The subject of this experiment is Nucleic Acid. The experiment can be described thus: The association constant was obtained from absorption spectral change. Format: nucleic-acid assay.

In turn, `NCCNCc1c2ccccc2nc2ccccc12` yielded a K ass of 36000 M⁻¹.

The values above are taken from ChEMBL document CHEMBL1129911, “Synthesis, characterization, interaction with DNA, and antitumor activity of a cis-Dichloroplatinum(II) complex linked to an intercalator via one methylene chain” (Bioorg Med Chem Lett, 1997).
